Calls of active or inactive are those of the source. No cut-off for these calls is given here.
Columns and labels:
SH-SY5Y [1] = assay: Neuroprotective activity against staurosporine-induced apoptosis in human SH-SY5Y cells assessed as increase in cell viability after 20 hrs by MTT assay; assay type: functional, cell-based
SH-SY5Y [2] = assay: Neuroprotective activity against H2O2-induced oxidative stress in human SH-SY5Y cells assessed as increase in cell viability after 20 hrs by MTT assay; assay type: functional, cell-based
SH-SY5Y [3] = assay: Cytotoxicity against human SH-SY5Y cells assessed as cell viability up to 3 uM after 24 hrs by MTT assay; assay type: cell-based
SH-SY5Y [4] = assay: Neuroprotective activity against L-glutamate-induced excitotoxicity in human SH-SY5Y cells assessed as increase in cell viability at 0.6 uM after 20 hrs by MTT assay; assay type: functional
SH-SY5Y [5] = assay: Cytotoxicity against human SH-SY5Y cells assessed as cell viability above 10 uM after 24 hrs by MTT assay; assay type: cell-based
SH-SY5Y [6] = assay: Neuroprotective activity against L-glutamate-induced excitotoxicity in human SH-SY5Y cells assessed as increase in cell viability after 20 hrs by MTT assay; assay type: functional, cell-based
SH-SY5Y [7] = assay: Cytotoxicity against human SH-SY5Y cells assessed as cell viability at 0.3 to 3 uM after 24 hrs by MTT assay; assay type: cell-based
SH-SY5Y [8] = assay: Neuroprotective activity against staurosporine-induced apoptosis in human SH-SY5Y cells assessed as increase in cell viability at 0.3 uM after 20 hrs by MTT assay; assay type: functional
SH-SY5Y [9] = assay: Neuroprotective activity against L-glutamate-induced excitotoxicity in human SH-SY5Y cells assessed as increase in cell viability at 0.3 uM after 20 hrs by MTT assay; assay type: functional
SH-SY5Y [10] = assay: Neuroprotective activity against H2O2-induced oxidative stress in human SH-SY5Y cells assessed as increase in cell viability at 0.6 to 1.2 uM after 20 hrs by MTT assay; assay type: functional

Row | Structure (SMILES) | Activity (SH-SY5Y [1]) | Activity (SH-SY5Y [2]) | Activity (SH-SY5Y [3]) | Activity (SH-SY5Y [4]) [%] | Activity (SH-SY5Y [5]) | Activity (SH-SY5Y [6]) | Activity (SH-SY5Y [7]) | Activity (SH-SY5Y [8]) [%] | %max (SH-SY5Y [9]) [%] | %max (SH-SY5Y [10]) [%]
1 | O=c1c2ccccc2ncn1-c1ccccc1CO | Active | inactive | Non-toxic | 35 | Toxic | – | – | – | – | –
2 | COc1ccc(-n2cnc3ccc(OC)cc3c2=O)c(CF)c1 | Active | inactive | Non-toxic | – | Toxic | Active | – | – | – | –
3 | COc1ccc(-n2c(=S)[nH]c3ccc(OC)cc3c2=O)c(CO)c1 | inactive | Active | – | – | – | Active | Non-toxic | – | – | –
4 | COC(=O)c1cc(OC)ccc1-n1cnc2ccc(OC)cc2c1=O | Active | Active | – | – | – | Active | Non-toxic | – | – | –
5 | COc1ccc(-n2c(=O)[nH]c3ccc(OC)cc3c2=O)c(CO)c1 | Active | Active | – | – | – | Active | Non-toxic | – | – | –
6 | COc1ccc(-n2cnc3ccc(OC)cc3c2=O)c(COC=O)c1 | – | – | Non-toxic | – | Toxic | – | – | – | – | –
7 | COc1ccc(-n2cnc3ccc(OC)cc3c2=O)cc1 | Active | Active | – | – | – | Active | Non-toxic | – | – | –
8 | COc1ccc(-n2cnc3ccc(OC)cc3c2=O)c(CO)c1 [DICTYOQUINAZOLE A] | – | – | Non-toxic | – | Toxic | – | – | 41 | 10 | 22
